Measurements taken from US11180504B2 (ORCHID PHARMA LTD., priority 2016, dated 2021).
In brackets after ≈: the same amount, converted by molar mass.

Assays:
[1] = test system: carbapenemase producing K. pneumoniae; test: MIC by broth micro-dilution (CLSI), carbapenemase producing K. pneumoniae; type: cell-based, Klebsiella pneumoniae; settings: Klebsiella pneumoniae, ATCCBAA1705, KPC-2 K. pneumoniae ATCC BAA-1705; read-out: MIC
[2] = test system: carbapenem sensitive Escherichia coli; test: MIC by broth micro-dilution (CLSI), carbapenem sensitive E. coli; type: cell-based; settings: Escherichia coli, ATCC25922, ESBL −ve E. coli ATCC25922; read-out: MIC
[3] = test system: methicillin-sensitive Staphylococcus aureus; test: MIC by broth micro-dilution (CLSI), methicillin-sensitive S. aureus; type: cell-based; settings: Staphylococcus aureus, ATCC 29213 / MSSA, MSSA S. aureus ATCC29213; read-out: MIC
[4] = test system: extended spectrum β lactamase (ESBL) SHV18 producing Klebsiella pneumoniae; test: MIC by broth micro-dilution (CLSI), ESBL SHV18 producing K. pneumoniae; type: cell-based; settings: Klebsiella pneumoniae, ATCC700603, 22 h, ESBL +ve (SHV-18) K. pneumoniae ATCC700603; read-out: MIC
[5] = test system: carbapenem sensitive Pseudomonas aeruginosa; test: MIC by broth micro-dilution (CLSI), carbapenem sensitive P. aeruginosa; type: cell-based; settings: Pseudomonas aeruginosa, ATCC27853, Meropenem susceptible P. aeruginosa ATCC27853; read-out: MIC

SMILES | MIC [1] | MIC [2] | MIC [3] | MIC [4] | MIC [5]
CNCC(=O)N[C@H](C)[C@H]1C(=O)N2C(C(=O)O)=C(S[C@@H]3CN[C@H](C(=O)N4CCNCC4)C3)[C@H](C)[C@H]12 [Example 168] | 2 µg/mL (≈ 4.04 µM) | 1 µg/mL (≈ 2.02 µM) | 16 µg/mL (≈ 32.3 µM) | 2 µg/mL (≈ 4.04 µM) | 2 µg/mL (≈ 4.04 µM)
CNCC(=O)N[C@H](C)[C@H]1C(=O)N2C(C(=O)O)=C(S[C@@H]3CN[C@H](CNS(N)(=O)=O)C3)[C@H](C)[C@H]12 [Example 169] | 2 µg/mL (≈ 4.08 µM) | 1 µg/mL (≈ 2.04 µM) | 8 µg/mL (≈ 16.3 µM) | 16 µg/mL (≈ 32.6 µM) | 4 µg/mL (≈ 8.15 µM)
C[C@@H](NC(=O)C(F)F)[C@H]1C(=O)N2C(C(=O)O)=C(S[C@@H]3CN[C@H](C(=O)N4CC[C@H](NC5CC5)C4)C3)[C@H](C)[C@H]12 [Example 170] | 8 µg/mL (≈ 14.8 µM) | 1 µg/mL (≈ 1.85 µM) | 2 µg/mL (≈ 3.69 µM) | 4 µg/mL (≈ 7.39 µM) | 32 µg/mL (≈ 59.1 µM)
CNCCN(CC#N)C(=O)[C@@H]1C[C@H](SC2=C(C(=O)O)N3C(=O)[C@H]([C@@H](C)NC(=O)C(F)F)[C@H]3[C@H]2C)CN1 [Example 171] | 128 µg/mL (≈ 242 µM) | 4 µg/mL (≈ 7.57 µM) | 2 µg/mL (≈ 3.78 µM) | 128 µg/mL (≈ 242 µM) | > 128 µg/mL
C[C@@H](NC(=O)C(F)F)[C@H]1C(=O)N2C(C(=O)O)=C(S[C@@H]3CN[C@H](C(=O)N(C)[C@@H]4CN[C@H](C(=O)N(C)C)C4)C3)[C@H](C)[C@H]12 [Example 172] | 8 µg/mL (≈ 13.6 µM) | 1 µg/mL (≈ 1.7 µM) | 4 µg/mL (≈ 6.82 µM) | 8 µg/mL (≈ 13.6 µM) | 64 µg/mL (≈ 109 µM)
C[C@@H](NC(=O)C(F)F)[C@H]1C(=O)N2C(C(=O)O)=C(S[C@@H]3CN[C@H](C(=O)N(C)CCC(=O)N4CC[C@H](N)C4)C3)[C@H](C)[C@H]12 [Example 173] | 8 µg/mL (≈ 13.6 µM) | 2 µg/mL (≈ 3.41 µM) | 4 µg/mL (≈ 6.82 µM) | 16 µg/mL (≈ 27.3 µM) | 16 µg/mL (≈ 27.3 µM)
C[C@@H](NC(=O)C(F)F)[C@H]1C(=O)N2C(C(=O)O)=C(S[C@@H]3CN[C@H](C(=O)N(C)CCC(=O)N4CCCNCC4)C3)[C@H](C)[C@H]12 [Example 174] | 8 µg/mL (≈ 13.3 µM) | 2 µg/mL (≈ 3.33 µM) | 4 µg/mL (≈ 6.66 µM) | 16 µg/mL (≈ 26.6 µM) | 32 µg/mL (≈ 53.3 µM)
C[C@@H](NC(=O)C(F)F)[C@H]1C(=O)N2C(C(=O)O)=C(S[C@@H]3CN[C@H](C(=O)N4CC[C@H](NCC#N)C4)C3)[C@H](C)[C@H]12 [Example 175] | 4 µg/mL (≈ 7.4 µM) | 1 µg/mL (≈ 1.85 µM) | 2 µg/mL (≈ 3.7 µM) | 2 µg/mL (≈ 3.7 µM) | 16 µg/mL (≈ 29.6 µM)
C[C@@H](NC(=O)C(F)F)[C@H]1C(=O)N2C(C(=O)O)=C(S[C@@H]3CN[C@H](C(=O)N4CC[C@H](n5cc(CN)nn5)C4)C3)[C@H](C)[C@H]12 [Example 176] | 8 µg/mL (≈ 13.7 µM) | 1 µg/mL (≈ 1.72 µM) | 2 µg/mL (≈ 3.43 µM) | 4 µg/mL (≈ 6.87 µM) | 8 µg/mL (≈ 13.7 µM)
C[C@H]([C@H]1C(=O)N2C(C(=O)O)=C(SC3CN[C@H](C(=O)N(C)C)C3)[C@H](C)[C@H]12)n1cc(CN)nn1 (stereo partly drawn) [Example 177] | 2 µg/mL (≈ 4.31 µM) | 2 µg/mL (≈ 4.31 µM) | 8 µg/mL (≈ 17.3 µM) | 2 µg/mL (≈ 4.31 µM) | 32 µg/mL (≈ 69 µM)
CNCC(=O)N[C@H](C)[C@H]1C(=O)N2C(C(=O)O)=C(S[C@@H]3CN[C@H](C(=O)N4CC[C@H](n5cc(CN)nn5)C4)C3)[C@H](C)[C@H]12 [Example 178] | 4 µg/mL (≈ 6.95 µM) | 2 µg/mL (≈ 3.47 µM) | 32 µg/mL (≈ 55.6 µM) | 4 µg/mL (≈ 6.95 µM) | 4 µg/mL (≈ 6.95 µM)
CNCC(=O)N[C@H](C)[C@H]1C(=O)N2C(C(=O)O)=C(S[C@@H]3CN[C@H](C(=O)N4CC[C@@H](NC)C4)C3)[C@H](C)[C@H]12 [Example 179] | 8 µg/mL (≈ 15.7 µM) | 2 µg/mL (≈ 3.93 µM) | 128 µg/mL (≈ 252 µM) | 16 µg/mL (≈ 31.5 µM) | 16 µg/mL (≈ 31.5 µM)
C[C@@H](NC(=O)CN(C)C)[C@H]1C(=O)N2C(C(=O)O)=C(S[C@@H]3CN[C@H](C(=O)N4CC[C@@H](N)C4)C3)[C@H](C)[C@H]12 [Example 180] | 32 µg/mL (≈ 62.9 µM) | 4 µg/mL (≈ 7.86 µM) | 128 µg/mL (≈ 252 µM) | 32 µg/mL (≈ 62.9 µM) | 16 µg/mL (≈ 31.5 µM)
CNCC(=O)N[C@H](C)[C@H]1C(=O)N2C(C(=O)O)=C(S[C@@H]3CN[C@H](Cn4cc(CN)nn4)C3)[C@H](C)[C@H]12 [Example 181] | 64 µg/mL (≈ 130 µM) | 8 µg/mL (≈ 16.2 µM) | > 128 µg/mL | > 128 µg/mL | 128 µg/mL (≈ 260 µM)
C[C@@H](NC(=O)CN(C)C)[C@H]1C(=O)N2C(C(=O)O)=C(S[C@@H]3CN[C@H](C(=O)N4CCNCC4)C3)[C@H](C)[C@H]12 [Example 182] | 16 µg/mL (≈ 31.5 µM) | 8 µg/mL (≈ 15.7 µM) | 128 µg/mL (≈ 252 µM) | 16 µg/mL (≈ 31.5 µM) | 8 µg/mL (≈ 15.7 µM)
